Data reported in paper PMC10313368 (The Journal of Clinical Investigation, 2023).
Values joined by “and” are separate entries in the source; they are usually repeats but may differ in a detail not shown here. Equal entries are not always repeated.

Experiments:
C57BL/6 mice = experiment: Flash scotopic ERG after a single intraocular injection; assay type: in vivo, mouse; conditions: for A wave / B wave: in µV (unit assumed)
Experimental: Intraocular injections. Intravitreal injections were performed with a PLI-100A Pico-liter Microinjector (Warner Instruments, Harvard Bioscience) using pulled-glass micropipettes. Each micropipette was calibrated to deliver a 1 μl volume on depression of a foot switch. […]
Flash scotopic ERGs. All procedures were performed under dim red light. Mice were dark adapted overnight, anesthetized with ketamine (50 mg/kg) and xylazine (5mg/kg) and pupils were dilated with a topical drop of tropicamide (1%). Scotopic ERG responses were measured using the Celeris ERG stimulator (Diagnosys, Lowell, MA) at flash intensities of 0.025, 0.25, 2.5, 7.96, and 79.06 cd/s/m2. ERGs were measured simultaneously from both eyes with a ground electrode placed into the forehead between the eyes and a reference electrode into the hip. […]

HIF-1α = molecular target: T1, HIF-1α (Mus musculus, UniProt Q61221); experiment: Western blot of HIF-1α in neurosensory retina of STZ-diabetic mice; assay type: in vivo; conditions: IP 32-134D 40 or 80 mg/kg; Supplementary Figure 3
T1 construct: from tissue; host or cells: retina of C57BL/6 OIR pups
T1 sequence (Q61221 whole entry): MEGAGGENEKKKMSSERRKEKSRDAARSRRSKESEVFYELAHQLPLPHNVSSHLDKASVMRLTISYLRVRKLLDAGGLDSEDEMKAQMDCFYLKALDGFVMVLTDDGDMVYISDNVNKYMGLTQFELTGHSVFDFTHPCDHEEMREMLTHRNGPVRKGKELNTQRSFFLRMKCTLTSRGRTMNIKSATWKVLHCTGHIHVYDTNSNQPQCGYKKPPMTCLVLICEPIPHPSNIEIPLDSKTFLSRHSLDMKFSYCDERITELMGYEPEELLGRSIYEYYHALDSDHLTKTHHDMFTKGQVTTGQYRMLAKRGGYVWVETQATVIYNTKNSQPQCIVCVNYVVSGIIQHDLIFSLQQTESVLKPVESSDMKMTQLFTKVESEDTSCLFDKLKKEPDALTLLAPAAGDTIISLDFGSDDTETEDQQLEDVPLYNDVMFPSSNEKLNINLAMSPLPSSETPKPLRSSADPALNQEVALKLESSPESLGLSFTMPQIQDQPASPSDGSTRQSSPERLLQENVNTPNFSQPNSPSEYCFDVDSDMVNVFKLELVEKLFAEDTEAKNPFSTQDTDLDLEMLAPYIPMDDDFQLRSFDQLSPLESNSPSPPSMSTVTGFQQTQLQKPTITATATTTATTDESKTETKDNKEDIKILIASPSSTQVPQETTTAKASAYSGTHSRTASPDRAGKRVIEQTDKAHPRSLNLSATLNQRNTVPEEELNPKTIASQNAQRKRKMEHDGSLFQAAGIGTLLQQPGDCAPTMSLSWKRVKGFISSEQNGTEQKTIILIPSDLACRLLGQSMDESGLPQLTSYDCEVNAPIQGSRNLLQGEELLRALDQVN
Experimental: Immunoblot assays. Cells, neurosensory retina, and D120 retinal organoid lysates were subjected to 4–15% gradient SDS/PAGE (Invitrogen). Immunoblot (Western blot or WB) assays were performed as previously described (1).
Reverse transcription and quantitative real-time PCR. Total RNA was isolated from cultured cells or retinas with PureLinkTM RNA Mini Kit (Invitrogen #12183025), and cDNA was prepared with MuLV Reverse Transcriptase (Applied Biosystems). Quantitative real-time PCR was performed with Power SYBR Green PCR Master Mix (Applied Biosystems) and MyiQ Real-Time PCR Detection System (Bio-Rad). Normalization was done using cyclophilin A for mouse tissue and human cell lines. Primers are listed in Supplemental Table 2.
Angiogenesis array. Total RNA was isolated from MIO-MI cells (8 hours) and HUVECs (16 […]
cDNA was prepared with QuantiTect® Reverse Transcription Kit (Qiagen, Cat# 205311). […]
STZ-induced diabetes mouse model. […] Blood glucose was measured on experimental day 28 after 16 hours fasting and mice with blood glucose level > 250 mg/dL were considered […]
the peritoneal cavity of neonatal C57BL/6 mice and STZ mice at indicated times, and the retinal vasculature and lysates for WB and qPCR were assessed at P17. […]

adult mice = conditions: i.p. 5 consecutive days, doses up to 80 mg/kg; cited from earlier work

Brc1ccc2c(-c3csc(-c4c[nH]c5c(Br)cccc45)n3)c[nH]c2c1 [32-134D, 4-(6-bromo-1H-indol-3-yl)-2-(7-bromo-1H-indol-3-yl)thiazole]
retinal toxicity on ERG (C57BL/6 mice; 32-134D 70, 140, 210, 350 ng single intraocular injection, up to 5 weeks): did not observe any evidence of retina toxicity | A wave (C57BL/6 mice; DAY7, flash 0.25, 140NG): 84.49 and 88.87 | A wave (C57BL/6 mice; DAY7, flash 2.5, 140NG): 138.4 and 109.3 | A wave (C57BL/6 mice; DAY7, flash 7.96, 140NG): 181.6 and 123.7 | B wave (C57BL/6 mice; DAY7, flash 7.96, 140NG): 337.9 | B wave (C57BL/6 mice; DAY7, flash 79.06, 140NG): 327.7 | B wave (C57BL/6 mice; DAY14, flash 0.025, 70NG): 149.2 and 168.6 and 209.2 and 152.4 and 190.2 and 184.53 and 268.4 | B wave (C57BL/6 mice; DAY14, flash 0.025, 140NG): 158.1 | A wave (C57BL/6 mice; DAY14, flash 0.25, 70NG): 69.71 and 75.03 and 99.56 and 75.32 and 55.14 and 80.45 and 95.29 | B wave (C57BL/6 mice; DAY14, flash 0.25, 70NG): 204.5 and 293.7 and 273.9 and 206.4 and 256.8 and 214.7 and 313 | A wave (C57BL/6 mice; DAY14, flash 0.25, 140NG): 76.62 and 123.2 | B wave (C57BL/6 mice; DAY14, flash 0.25, 140NG): 209.6 | A wave (C57BL/6 mice; DAY14, flash 2.5, 70NG): 116.4 and 108.2 and 136.4 and 117.2 and 152.87 and 100.6 and 158.9 | B wave (C57BL/6 mice; DAY14, flash 2.5, 70NG): 215 and 216 and 281.6 and 293.7 and 254.6 and 294.3 and 388.9 | A wave (C57BL/6 mice; DAY14, flash 2.5, 140NG): 128 and 175.3 | B wave (C57BL/6 mice; DAY14, flash 2.5, 140NG): 257.2 | A wave (C57BL/6 mice; DAY14, flash 7.96, 70NG): 135.7 and 102.5 and 159.1 and 157 and 172.6 and 118.4 and 175.8 | B wave (C57BL/6 mice; DAY14, flash 7.96, 70NG): 256.6 and 296.2 and 276.2 and 330.1 and 232.5 and 333.4 and 391 | A wave (C57BL/6 mice; DAY14, flash 7.96, 140NG): 138.7 and 208.7 | B wave (C57BL/6 mice; DAY14, flash 7.96, 140NG): 262.8 | A wave (C57BL/6 mice; DAY14, flash 79.06, 70NG): 161.6 and 123.9 and 177.3 and 180.4 and 182.2 and 135.3 and 174.3 | B wave (C57BL/6 mice; DAY14, flash 79.06, 70NG): 232.9 and 293.2 and 237.9 and 340.7 and 256.5 and 324.6 and 372.7 | A wave (C57BL/6 mice; DAY14, flash 79.06, 140NG): 168.4 and 191 | B wave (C57BL/6 mice; DAY14, flash 79.06, 140NG): 300.7 | B wave (C57BL/6 mice; DAY21, flash 0.025, 140NG): 129.1 | A wave (C57BL/6 mice; DAY21, flash 0.25, 70NG): 76.13 and 75.12 and 97.06 and 99.13 and 63.13 and 91.99 and 97.31 | B wave (C57BL/6 mice; DAY21, flash 0.25, 70NG): 236.1 and 170.7 and 170.8 and 248.9 and 189.8 and 286.3 and 297.9 | B wave (C57BL/6 mice; DAY21, flash 0.25, 140NG): 175.7 | A wave (C57BL/6 mice; DAY21, flash 2.5, 70NG): 112.6 and 110.6 and 152.6 and 169.8 and 108.4 and 159.7 and 165.1 | B wave (C57BL/6 mice; DAY21, flash 2.5, 70NG): 298.7 and 211.6 and 203 and 296 and 196.2 and 332.2 and 364.3 | A wave (C57BL/6 mice; DAY21, flash 7.96, 70NG): 105.9 and 120.3 and 162.9 and 176.2 and 125.7 and 175.1 and 172 | B wave (C57BL/6 mice; DAY21, flash 7.96, 70NG): 315.1 and 232.4 and 223 and 328.4 and 215.9 and 350.1 and 374.6 | A wave (C57BL/6 mice; DAY21, flash 7.96, 140NG): 126.8 and 195.8 | A wave (C57BL/6 mice; DAY21, flash 79.06, 70NG): 108.1 and 130.3 and 166.3 and 180.2 and 139.8 and 172.8 and 188 | B wave (C57BL/6 mice; DAY21, flash 79.06, 70NG): 286.8 and 226.3 and 206.8 and 273.5 and 273.2 and 297.6 and 298.6 | A wave (C57BL/6 mice; DAY21, flash 79.06, 140NG): 148.7 and 231 | A wave (C57BL/6 mice; DAY28, flash 2.5, 140NG): 148.8 and 128.1 | A wave (C57BL/6 mice; DAY28, flash 7.96, 70NG): 118.7 and 202.6 and 114.3 and 192.2 and 119.5 and 102.4 and 173.1 | A wave (C57BL/6 mice; DAY28, flash 7.96, 140NG): 168.7 | A wave (C57BL/6 mice; DAY28, flash 79.06, 70NG): 125.3 and 187.6 and 118.9 and 161.8 and 121.28 and 110 and 160.6 | A wave (C57BL/6 mice; DAY28, flash 79.06, 140NG): 153 | A wave (C57BL/6 mice; DAY35, flash 2.5, 140NG): 66 | A wave (C57BL/6 mice; DAY35, flash 79.06, 70NG): 74.06 and 95.89 and 102 and 95.42 and 92.65 and 81.18 and 82.72 | B wave (C57BL/6 mice; DAY35, flash 79.06, 70NG): 112.4 and 198.3 and 140.3 and 150.2 and 167.5 and 220.3 and 163 | HIF-1α expression in neurosensory retina of STZ mice (HIF-1α): inhibits HIF | systemic tolerability (appearance, behavior, body weight, hemoglobin, hematocrit) (adult mice): well tolerated
